The target in the experiment is T1, CadD (Leptospira interrogans, UniProt Q72V44).
T1 sequence (Q72V44 1-442): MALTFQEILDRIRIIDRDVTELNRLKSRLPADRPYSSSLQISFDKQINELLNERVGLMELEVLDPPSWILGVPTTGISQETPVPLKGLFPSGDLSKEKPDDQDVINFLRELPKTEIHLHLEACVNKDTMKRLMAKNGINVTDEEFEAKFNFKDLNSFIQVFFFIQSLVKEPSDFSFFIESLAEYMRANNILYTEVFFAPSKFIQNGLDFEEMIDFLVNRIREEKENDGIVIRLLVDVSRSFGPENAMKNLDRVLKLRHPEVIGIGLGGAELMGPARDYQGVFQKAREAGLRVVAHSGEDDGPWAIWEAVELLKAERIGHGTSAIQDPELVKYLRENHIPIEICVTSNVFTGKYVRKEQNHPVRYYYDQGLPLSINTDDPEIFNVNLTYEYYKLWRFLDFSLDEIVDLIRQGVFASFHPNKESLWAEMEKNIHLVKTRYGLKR
Put plainly: UV spectrophotometric cAMP deamination at […] nm, inhibition. The class given is biochemical.

The molecule `O=P1(O)OC[C@H]2O[C@@H](n3cnc4cncnc43)[C@H](O)[C@@H]2O1` [cPuMP] displayed an inhibition constant Ki of 1300 ± 500 nM.

One may read the Ki as a dissociation constant, usually derived from enzyme kinetics or from competition with a known ligand. A lower Ki goes with tighter binding.

For the origin of these results see article PMC3880142 (ACS chemical biology, 2013).
